Measurements as given in paper PMC7217877, “N-AS-triggered SPMs are direct regulators of microglia in a model of Alzheimer’s disease” (Nature Communications, 2020).
Values joined by “and” are separate entries in the source; they are usually repeats but may differ in a detail not shown here. Identical values can stand only once.

Columns and labels:
COX2 = assay: SphK1-mediated COX2 acetylation with [14C] acetyl-CoA (ATP competition, SphK1 mutants; Supplementary Fig 1h,i); type: biochemical, human; details: COX2 +
Description: Single point mutations in SphK1 (R56A, R57A, R24A, R185A, D178A, and F192A) and COX2 (S565A, N181A, T564A, and S567A) were generated using the In-Fusion Cloning Kits (Clontech) and ORF cDNA expression plasmids of human SphK1 and COX2 gene (Sino Biological Inc, HG15679-NH and HG12036-NH), according to the manufacturer’s instructions. The forward and reverse primers described in Supplementary Table 4. The SphK1 WT, SphK1 mutants, COX2 WT, and COX2 mutant plasmids were transformed in the One shot TOP 10 competent cell (Invitrogen). The bacteria were grown in Luria-Bertani (LB, Invitrogen) plates supplemented with 50 μg ml^−1 kanamycin (Sigma-Aldrich) at 37 °C. The bacterial cell pellets were resuspended in lysis buffer containing 20 mM sodium phosphate (GE Healthcare), 500 mM NaCl (GE Healthcare), 20 mM imidazole (pH 7.4) (GE Healthcare), 0.2 mg ml^−1 lysozyme (Sigma-Aldrich), 20 μg ml^−1 DNase I (Roche), 1 mM MgCl2 (Sigma-Aldrich), and 1 mM PMSF (Sigma-Aldrich) before being lysed by sonication and clarified by centrifugation at 15,493×g for 10 min. Proteins were purified from the soluble fraction using His-Spin Trap columns (GE Healthcare) and the binding and acetylation assays were performed.
Acetylation assays were performed according to previously described procedures with minor modifications. […] N-AS (2 μCi, ARC UK Ltd, ARC-1024) at 37 °C for 2 h. [^14C] aspirin (2 μCi, ARC UK Ltd, ARC-0473) was conducted as the positive control. The reactions were terminated by placing the reaction tubes in ice for 5 min. To evaluate in vivo neuronal and microglial COX2 acetylation, 10 μCi [^14C] N-AS was orally administrated to 9-months-old WT and APP/PS1 mice. After 1 h, neuron and microglia were isolated and sonicated in culture media. To immunoprecipitate acetylated COX2, the sample was incubated with COX2 antibody (Abcam, ab15191) at 4 °C for 24 h and precipitated by adding 50 μl of protein-A sepharose (GE Healthcare). Acetylated COX2 proteins bound to the beads were analyzed using a Tri-Carb 3110TR liquid scintillation counter (Perkin-Elmer).

APP/PS1 mice = assay: ac-S565 COX2 in microglia and neuron of treated mice (immunofluorescence, western blot, Fig 4c,d); type: in vivo, mouse; details: APP/PS1 + N-AS, individual values
Description: Adult neurons and microglia were isolated from the mice brain as previously described. In brief, the cortex of WT (1, 3, 5, or 9-months-old), APP/PS1 (1, 3, 5, or 9-months-old), APP/PS1 treated with N-AS (9-months-old) or APP/PS1 treated with aspirin (9-months-old) mice were minced in Hibernate A (Gibco)/B27 (Invitrogen) medium and dissociated using papain (Worthington) solution. After tissue trituration, cells were separated by Optiprep (Sigma-Aldrich) density gradient centrifugation. The purity of the fractionated neurons and microglia were acutely confirmed by neuronal (NeuN, mouse, 1:200, Millipore, MAB377) and microglial (Iba1, rabbit, 1:1000, Wako, 019-19941) markers and the isolated neurons and microglia were acutely analyzed for the acetylation assay and lipid mediators metabololipidomics.
Thioflavin S (Sigma-Aldrich) staining was carried out according to previously described procedures. We used 6E10 (mouse, 1:100, Signet, SIG39300), anti-20G10 (mouse, 1:1000, provided by D. R. Howlett, GlaxoSmithKline, Harlow, Essex, UK) for Aβ42, anti-G30 (rabbit, 1:1000, provided by D. R. Howlett) for Aβ40, SMA (mouse, 1:400, Sigma-Aldrich, A2547), AT8 (mouse, 1:500, Thermo Fisher Scientific, MN1020), Caspase-3 (mouse, 1:200, Novus Biologicals, NB100-56708), ac-S565 (rabbit, 1:100), COX2 (mouse, 1:250, Thermo Fisher Scientific, 35-8200), Iba1 (rabbit, 1:500, Wako, 019-19941 and goat, Abcam, ab5076), NeuN (mouse, 1:500, Millipore, MAB177), GFAP (rabbit, 1:500, Dako, N1506 and chicken, 1:500, Abcam, ab4674), and Lamp1 (mouse, 1:200, Abcam, ab24170). The sections were analyzed with a laser-scanning confocal microscope (FV3000; Olympus) or with a BX51 microscope (Olympus). MetaMorph software (Molecular Devices) was used to quantification. Three-dimensional reconstruction of microglia was recorded and analyzed using IMARIS software (Bitplane)[11]. […]
Samples were lysed in RIPA buffer (Cell signaling Technologies), then subjected to SDS-PAGE and transferred to a nitrocellulose membrane. […] We performed densitometric quantification using the ImageJ software (National Institutes of Health). […]

SMILES	COX2 acetylation with C14 Acetyl CoA (sFig 1i) (COX2; Acetyl transfer: SphK1, Sph, ATP, listed as C14 Acetyl CoA)	COX2 acetylation with C14 Acetyl CoA (sFig 1i) (COX2; Acetyl transfer: SphK1, Sph, listed as C14 Acetyl CoA)	COX2 acetylation with C14 Acetyl CoA (sFig 1i) (COX2; Acetyl transfer: SphK1, listed as C14 Acetyl CoA)	COX2 acetylation with C14 Acetyl CoA (sFig 1i) (COX2; Acetyl transfer: SphK1 R24A, Sph, listed as C14 Acetyl CoA)	COX2 acetylation with C14 Acetyl CoA (sFig 1i) (COX2; Acetyl transfer: SphK1 R56A, Sph, listed as C14 Acetyl CoA)	COX2 acetylation with C14 Acetyl CoA (sFig 1i) (COX2; Acetyl transfer: SphK1 R57A, Sph, listed as C14 Acetyl CoA)	COX2 acetylation with C14 Acetyl CoA (sFig 1i) (COX2; Acetyl transfer: SphK1 R185A, Sph, listed as C14 Acetyl CoA)	COX2 acetylation with C14 Acetyl CoA (sFig 1i) (COX2; C14 Acetyl CoA +, Acetyl transfer -)	microglia (Iba1) with ac-S565 and COX2 in cortex, quantification (Fig 4c) (APP/PS1 mice)	ac-S565 / total COX2, western blot (Fig 4d) (APP/PS1 mice; Microglia)	ac-S565 / total COX2, western blot (Fig 4d) (APP/PS1 mice; Neuron)
CC(=O)SCCNC(=O)CCNC(=O)[C@H](O)C(C)(C)COP(=O)(O)OP(=O)(O)OC[C@H]1O[C@@H](n2cnc3c(N)ncnc32)[C@H](O)[C@@H]1OP(=O)(O)O [Acetyl-CoA, acetyl-CoA]	10456 and 10500 and 10758 and 10726	19270 and 24354 and 19216 and 24474 and 19218 and 24370	11878 and 13132 and 13238 and 13414 and 13230	12532 and 11618 and 11452 and 12034 and 12526 and 12014	9992 and 10060 and 9758 and 9780 and 9270 and 10086	14380 and 14360 and 14338 and 14310 and 14334 and 14376	10222 and 9944 and 10214 and 10110 and 9988	2366 and 2614 and 2946 and 2710 and 2880 and 2156			
CCCCCCCCCCCCC/C=C/[C@@H](O)[C@H](CO)NC(C)=O [N-AS, N-((2S,3R,E)-1,3-Dihydroxyoctadec-4-en-2-yl)acetamide]									2.146 and 2.677 and 1.427 and 1.497 and 1.3659 and 1.3538	1.271 and 0.7861 and 0.8284 and 0.7309 and 1.0567 and 1.371	0.9062 and 0.3691 and 0.5034 and 0.9834 and 0.3378 and 0.4586
